In US20140314857A1, “FORMULATIONS FOR ENHANCED BIOAVAILABILITY OF ZANAMIVIR” (priority 2012, published 2014):
“And” between values parts separate entries of the source, which are not always exact repeats. Identical values can stand only once.

Experiment: Intravenous and intraduodenal bioavailability of zanamivir from three formulations (Example 5)
Settings: for C0: extrapolated to t = 0; for concentration at 0.25 hr / concentration at 0.5 hr / concentration at 0.83 hr / concentration at 1 hr / concentration at 1.5 hr / concentration at 2 hr / concentration at 0.033 hr / concentration at 0.083 hr: 1.5 mg/animal, Plasma concentration; for clearance: CL; for Vd: Vss
Source text: Male Sprague-Dawley rats (Hilltop Labs), 3 animals per treatment group, 250-350 grams in weight, were fitted with a jugular vein cannula (JVC). Animals intended for intraduodenal dosing were also fitted with one or more intraduodenal cannula (IDC) and those intended for intravenous dosing were fitted with a second JVC. Food was withheld from the animals for a minimum of twelve hours prior to test article administration and was returned approximately four hours post-dose. Water was supplied ad libitum.
Intraduodenal doses composed of 1.5 mg of zanamivir and varying amounts of an enhancer (glycerol or Capmul MCM L8) were injected directly into the duodenum via the IDC. Intravenous dosing was conducted by the injection of 1.5 mg of zanamivir in 200 μL of PBS through a JVC. For some experiments, the absorption enhancer was administered intraduodenally 2 hr prior to administering 1.5 mg of zanamivir in PBS through a second IDC. Each intraduodenal dose was followed with the introduction of a small air bubble (˜10 μL) in the cannula followed by a flush of 125 μL of PBS to ensure the dose was given in full. The volume of PBS used for cannula flush was consistent across the treatment groups. The cannula was tied to prevent the PBS remaining in the cannula from entering the duodenum.
Blood samples collected via the JVC, approximately 400 μL each, were obtained at 2 min, 5 min, 15 min, 30 min, 60 min, 90 min, and 120 min, with sodium heparin used as an anti-coagulant. Each sample was placed into a chilled tube containing the anticoagulant and kept on ice until centrifugation at 4° C., 3,000×g, for 5 min. The plasma supernatants were stored at −70° C. until LC-MS analysis.
Dosing solution samples were assayed by LC-MS/MS using electrospray ionization. The chromatographic system consisted of Perkin Elmer series 200 micropumps and autosampler equipped with a Waters Atlantic® HILIC Silica 3 μM, 2.1×50 mm column. The mass spectrometer was a PE Sciex API 4000 with electrospray interface in multiple reaction monitoring mode. […] Stock solutions (1 mg/mL zanamivir) were prepared in water. Standards (eight concentrations) were prepared in the appropriate matched matrix (HBSSg or Sprague-Dawley rat plasma containing sodium heparin) and diluted 50-fold with methanol. Experimental samples were treated identically.
Standards and samples were prepared in Sprague Dawley rat plasma containing sodium heparin as an anticoagulant. An eight-point calibration curve was prepared at concentrations of 1000, 750, 500, 250, 100, 50, 25, and 10 ng/mL by serial dilution. Standard samples were treated identically to the study samples.
Plasma samples were extracted by protein precipitation in methanol.
In this example, the bioavailability of Zanamivir was evaluated after intravenous and intraduodenal doses in male Sprague-Dawley rats. The test compound was dosed at 1.5 mg/animal through intravenous and intraduodenal routes from different formulations. Plasma levels were determined by LC-MS/MS analysis. Pharmacokinetic parameters were estimated by a non-compartmental model using WinNonlin v4.1 software.

[1] = IV 1.5 mg/animal, Normal Saline, Ex.5, individual rats
[2] = male, Sprague-Dawley, rat, in vivo, ID 1.5 mg/animal, Capmul MCM L8 50 µL, Ex.5, mean
[3] = male, Sprague-Dawley, rat, in vivo, ID 1.5 mg/animal, Glycerol 50 µL, individual rats
[4] = male, Sprague-Dawley, rat, in vivo, ID 1.5 mg/animal, Glycerol 50 µL, mean
[5] = male, Sprague-Dawley, rat, in vivo, ID 1.5 mg/animal, PBS 50 µL, mean
[6] = male, Sprague-Dawley, rat, in vivo, ID 1.5 mg/animal, PBS 50 µL, individual rats
[7] = male, Sprague-Dawley, rat, in vivo, ID 1.5 mg/animal, PBS, 50 µL blank glycerol -2 hr, individual rats
[8] = male, Sprague-Dawley, rat, in vivo, ID 1.5 mg/animal, PBS, 50 µL blank glycerol -2 hr, mean
[9] = male, Sprague-Dawley, rat, in vivo, iv, 1.5 mg, IV 1.5 mg/animal, Normal Saline, Ex.5, individual rats
[10] = male, Sprague-Dawley, rat, in vivo, iv, 1.5 mg, IV 1.5 mg/animal, Normal Saline, Ex.5, mean
[11] = male, Sprague-Dawley, rat, in vivo, iv, IV 1.5 mg/animal, Normal Saline, Ex.5, individual rats
[12] = male, Sprague-Dawley, rat, in vivo, iv, IV 1.5 mg/animal, Normal Saline, Ex.5, mean

In the case of CC(=O)NC1C(NC(=N)N)C=C(C(=O)O)OC1C(O)C(O)CO (stereo not shown) [Zanamivir, 5-acetamido-4-guanidino-6-(1,2,3-trihydroxypropyl)-5,6-dihydro-4H-pyran-2-carboxylic acid], the T1/2 (ID 1.5 mg/animal, Capmul MCM L8 50 µL, Ex.5, individual rats) is reported as 27 min and 33 min, the t1/2 (ID 1.5 mg/animal, PBS, 50 µL blank glycerol -2 hr, individual rats) is reported as 39.6 min and 110 min and the Plasma concentration (IV 1.5 mg/animal, Normal Saline, Ex.5, 0.083 hr, individual rats) is reported as 17900 ng/mL and 16300 ng/mL. The C0 [1] was 26943 ng/mL and 32278 ng/mL, the CL [1] was 7.83 mL/min/kg and 8.67 mL/min/kg and the Vss [1] was 0.26 L/kg. For the same molecule, the t1/2 [1] was 27.6 min, the half-life (male, Sprague-Dawley, rat, in vivo, 1.5 mg, T1/2, ID 1.5 mg/animal, Capmul MCM L8 50 µL, Ex.5, individual rats) was 28.2 min and the half-life (male, Sprague-Dawley, rat, in vivo, 1.5 mg, T1/2, ID 1.5 mg/animal, Capmul MCM L8 50 µL, Ex.5, mean) was 29.4 min. For the same molecule, the half-life (male, Sprague-Dawley, rat, in vivo, 1.5 mg, t1/2, ID 1.5 mg/animal, Glycerol 50 µL, individual rats) was 17.4 min, the half-life (male, Sprague-Dawley, rat, in vivo, 1.5 mg, t1/2, ID 1.5 mg/animal, Glycerol 50 µL, mean) was 17.4 min and the half-life (male, Sprague-Dawley, rat, in vivo, 1.5 mg, t1/2, ID 1.5 mg/animal, PBS 50 µL, individual rats) was 49.8 min. For the same molecule, the half-life (male, Sprague-Dawley, rat, in vivo, 1.5 mg, t1/2, ID 1.5 mg/animal, PBS 50 µL, mean) was 49.8 min, the half-life (male, Sprague-Dawley, rat, in vivo, 1.5 mg, t1/2, ID 1.5 mg/animal, PBS, 50 µL blank glycerol -2 hr, mean) was 74.4 min and the Tmax (male, Sprague-Dawley, rat, in vivo, 1.5 mg, ID 1.5 mg/animal, Glycerol 50 µL, mean) was 30 min. It also gave a Tmax (male, Sprague-Dawley, rat, in vivo, 1.5 mg, ID 1.5 mg/animal, PBS 50 µL, individual rats) of 30 min, a Tmax (male, Sprague-Dawley, rat, in vivo, 1.5 mg, ID 1.5 mg/animal, PBS 50 µL, mean) of 30 min and a Tmax (male, Sprague-Dawley, rat, in vivo, 1.5 mg, ID 1.5 mg/animal, PBS, 50 µL blank glycerol -2 hr, mean) of 34.8 min. The concentration at 0.25 hr [2] was 4350 ng/mL, the concentration at 0.5 hr [2] was 2910 ng/mL and the concentration at 0.83 hr [2] was 7230 ng/mL. It also gave a concentration at 1 hr [2] of 1080 ng/mL, a concentration at 1.5 hr [2] of 578 ng/mL and a concentration at 2 hr [2] of 274 ng/mL. The concentration at 0.25 hr [3] was 1060 ng/mL, the concentration at 0.25 hr [4] was 928 ng/mL and the concentration at 0.5 hr [3] was 817 ng/mL. It also gave a concentration at 0.5 hr [4] of 744 ng/mL, a concentration at 0.83 hr [3] of 123 ng/mL and a concentration at 0.83 hr [4] of 102 ng/mL. For the same molecule, the concentration at 1 hr [4] was 415 ng/mL, the concentration at 1.5 hr [3] was 123 ng/mL and the concentration at 1.5 hr [4] was 93 ng/mL. The concentration at 2 hr [3] was 52.1 ng/mL, the concentration at 2 hr [4] was 61 ng/mL and the concentration at 0.25 hr [5] was 96 ng/mL. For the same molecule, the concentration at 0.5 hr [5] was 134 ng/mL, the concentration at 0.83 hr [5] was 38.7 ng/mL and the concentration at 1 hr [5] was 86.4 ng/mL. The concentration at 1.5 hr [6] was 59.6 ng/mL, the concentration at 1.5 hr [5] was 61.1 ng/mL and the concentration at 2 hr [6] was 60.2 ng/mL. The concentration at 2 hr [5] was 52.1 ng/mL, the concentration at 0.25 hr [7] was 60.9 ng/mL and the concentration at 0.25 hr [8] was 59.3 ng/mL. It also gave a concentration at 0.5 hr [8] of 66.3 ng/mL, a concentration at 0.83 hr [7] of 55.3 ng/mL and a concentration at 0.83 hr [8] of 52.2 ng/mL. The concentration at 1 hr [8] was 63.7 ng/mL, the concentration at 1.5 hr [8] was 47.5 ng/mL and the concentration at 2 hr [8] was 51.4 ng/mL. The bioavailability (male, Sprague-Dawley, rat, in vivo, inherent absolute bioavailability) was < 2%, the C0 (male, Sprague-Dawley, rat, in vivo, iv, 1.5 mg, C0, IV 1.5 mg/animal, Normal Saline, Ex.5, individual rats) was 33400 ng/mL and the C0 (male, Sprague-Dawley, rat, in vivo, iv, 1.5 mg, C0, IV 1.5 mg/animal, Normal Saline, Ex.5, mean) was 30900 ± 3440 ng/mL. It also gave a clearance [9] of 8.17 mL/min/kg, a clearance [10] of 8.17 mL/min/kg and a Vd [9] of 0.21 L/kg. For the same molecule, the Vd [10] was 0.24 ± 0.02 L/kg, the half-life (male, Sprague-Dawley, rat, in vivo, iv, 1.5 mg, t1/2, IV 1.5 mg/animal, Normal Saline, Ex.5, individual rats) was 30.6 min and the half-life (male, Sprague-Dawley, rat, in vivo, iv, 1.5 mg, t1/2, IV 1.5 mg/animal, Normal Saline, Ex.5, mean) was 29.4 ± 1.8 min. It also gave a Tmax [9] of 0 min, a Tmax [10] of 0 min and a concentration at 0.033 hr [11] of 26900 ng/mL. It also gave a concentration at 0.033 hr [12] of 24800 ng/mL, a concentration at 0.083 hr (male, Sprague-Dawley, rat, in vivo, iv, IV 1.5 mg/animal, Normal Saline, Ex.5, 0.083 hr, individual rats) of 19400 ng/mL and a concentration at 0.083 hr (male, Sprague-Dawley, rat, in vivo, iv, IV 1.5 mg/animal, Normal Saline, Ex.5, 0.083 hr, mean) of 17900 ng/mL. For the same molecule, the concentration at 0.25 hr [11] was 11700 ng/mL, the concentration at 0.25 hr [12] was 11200 ng/mL and the concentration at 0.5 hr [11] was 6610 ng/mL. It also gave a concentration at 0.5 hr [12] of 6450 ng/mL, a concentration at 1 hr [11] of 1650 ng/mL and a concentration at 1 hr [12] of 2100 ng/mL. For the same molecule, the concentration at 1.5 hr [11] was 709 ng/mL, the concentration at 1.5 hr [12] was 817 ng/mL and the concentration at 2 hr [11] was 423 ng/mL. For the same molecule, the concentration at 2 hr [12] was 513 ng/mL.
